Laboratory results published in patent US9492471B2, “Methods of treating a disease or disorder associated with Bruton'S Tyrosine Kinase” (Celgene Avilomics Research, Inc., priority 2013, dated 2016).
Like-named read-outs stand apart in the source and are kept apart here.

Tests used:
Assay in all cases: HotSpot kinase profiling
Type in all cases: biochemical
MEK1 = molecular target: T1, MEK1 (Homo sapiens, UniProt Q02750)
T1 construct: purchased Reaction Biology Corp
How it was run: (§1)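 P81 filtration radiometric readout; 2 h incubation at room temperature; 0.1% phosphoric acid wash; DMSO negative control; % inhibition, mean of replicate runs.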

LCK = molecular target: T2, LCK (Homo sapiens, UniProt P06239)
T2 construct: purchased Reaction Biology Corp
T2 sequence (P06239 whole entry): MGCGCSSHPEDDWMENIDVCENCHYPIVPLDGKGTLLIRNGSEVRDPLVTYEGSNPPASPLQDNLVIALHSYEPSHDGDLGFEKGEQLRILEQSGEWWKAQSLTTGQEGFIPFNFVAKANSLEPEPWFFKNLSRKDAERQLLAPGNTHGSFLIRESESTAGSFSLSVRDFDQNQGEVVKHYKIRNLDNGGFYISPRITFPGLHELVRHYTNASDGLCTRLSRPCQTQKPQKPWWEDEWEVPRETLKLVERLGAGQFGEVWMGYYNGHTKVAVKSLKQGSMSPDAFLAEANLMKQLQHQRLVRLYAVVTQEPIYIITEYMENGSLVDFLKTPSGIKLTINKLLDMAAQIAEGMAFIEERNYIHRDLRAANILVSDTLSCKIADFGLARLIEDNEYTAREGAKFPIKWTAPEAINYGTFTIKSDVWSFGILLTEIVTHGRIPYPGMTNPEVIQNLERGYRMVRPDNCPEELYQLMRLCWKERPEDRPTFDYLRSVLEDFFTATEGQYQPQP
How it was run: as §1

RSK4 = molecular target: T3, RSK4 (Homo sapiens, UniProt Q9UK32)
T3 construct: purchased Reaction Biology Corp
T3 sequence (Q9UK32 whole entry): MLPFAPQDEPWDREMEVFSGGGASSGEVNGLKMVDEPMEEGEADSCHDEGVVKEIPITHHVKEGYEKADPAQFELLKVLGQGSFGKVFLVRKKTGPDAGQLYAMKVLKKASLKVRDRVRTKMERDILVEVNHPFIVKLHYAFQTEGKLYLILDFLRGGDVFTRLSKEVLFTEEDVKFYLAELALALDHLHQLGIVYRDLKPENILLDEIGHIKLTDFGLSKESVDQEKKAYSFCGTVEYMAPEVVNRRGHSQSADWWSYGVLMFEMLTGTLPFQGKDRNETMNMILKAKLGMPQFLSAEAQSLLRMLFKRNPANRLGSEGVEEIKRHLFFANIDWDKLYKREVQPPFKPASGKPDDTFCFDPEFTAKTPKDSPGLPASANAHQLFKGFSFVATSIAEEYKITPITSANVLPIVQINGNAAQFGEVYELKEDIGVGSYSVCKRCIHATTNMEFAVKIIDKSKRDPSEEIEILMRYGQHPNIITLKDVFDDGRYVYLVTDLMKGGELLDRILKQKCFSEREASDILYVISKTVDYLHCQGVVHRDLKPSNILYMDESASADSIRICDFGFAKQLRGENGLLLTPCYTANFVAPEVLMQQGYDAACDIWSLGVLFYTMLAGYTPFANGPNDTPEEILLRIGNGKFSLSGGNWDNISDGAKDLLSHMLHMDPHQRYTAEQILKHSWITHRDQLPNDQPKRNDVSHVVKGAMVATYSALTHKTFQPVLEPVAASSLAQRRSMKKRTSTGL
How it was run: as §1

STK32B/YANK2 = molecular target: T4, STK32B/YANK2 (Homo sapiens, UniProt Q9NY57)
T4 construct: purchased Reaction Biology Corp
T4 sequence (Q9NY57 whole entry): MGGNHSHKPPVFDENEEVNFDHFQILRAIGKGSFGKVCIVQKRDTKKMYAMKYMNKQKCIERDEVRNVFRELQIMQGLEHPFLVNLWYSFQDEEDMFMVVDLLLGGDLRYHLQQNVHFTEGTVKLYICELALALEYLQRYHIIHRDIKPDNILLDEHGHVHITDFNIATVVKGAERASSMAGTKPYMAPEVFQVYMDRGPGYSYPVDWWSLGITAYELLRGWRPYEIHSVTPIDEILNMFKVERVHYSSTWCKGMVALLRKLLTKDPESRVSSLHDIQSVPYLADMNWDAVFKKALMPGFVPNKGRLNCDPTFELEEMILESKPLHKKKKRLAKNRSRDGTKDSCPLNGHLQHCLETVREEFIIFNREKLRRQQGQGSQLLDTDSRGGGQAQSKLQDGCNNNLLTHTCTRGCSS
How it was run: as §1

TSSK2 = molecular target: T5, TSSK2 (Homo sapiens, UniProt Q96PF2)
T5 construct: purchased Reaction Biology Corp
T5 sequence (Q96PF2 1-358): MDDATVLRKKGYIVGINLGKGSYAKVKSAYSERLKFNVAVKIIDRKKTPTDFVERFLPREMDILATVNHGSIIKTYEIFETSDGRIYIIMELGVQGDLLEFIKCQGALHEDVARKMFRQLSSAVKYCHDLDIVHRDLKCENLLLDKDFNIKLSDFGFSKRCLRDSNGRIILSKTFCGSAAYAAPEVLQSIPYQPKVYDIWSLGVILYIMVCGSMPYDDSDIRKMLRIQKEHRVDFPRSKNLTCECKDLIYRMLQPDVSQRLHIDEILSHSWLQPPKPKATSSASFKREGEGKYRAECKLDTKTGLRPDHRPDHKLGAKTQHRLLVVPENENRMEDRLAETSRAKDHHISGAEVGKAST
How it was run: as §1

ARAF = molecular target: T6, ARAF (Homo sapiens, UniProt P10398)
T6 construct: purchased Reaction Biology Corp
T6 sequence (P10398 1-606): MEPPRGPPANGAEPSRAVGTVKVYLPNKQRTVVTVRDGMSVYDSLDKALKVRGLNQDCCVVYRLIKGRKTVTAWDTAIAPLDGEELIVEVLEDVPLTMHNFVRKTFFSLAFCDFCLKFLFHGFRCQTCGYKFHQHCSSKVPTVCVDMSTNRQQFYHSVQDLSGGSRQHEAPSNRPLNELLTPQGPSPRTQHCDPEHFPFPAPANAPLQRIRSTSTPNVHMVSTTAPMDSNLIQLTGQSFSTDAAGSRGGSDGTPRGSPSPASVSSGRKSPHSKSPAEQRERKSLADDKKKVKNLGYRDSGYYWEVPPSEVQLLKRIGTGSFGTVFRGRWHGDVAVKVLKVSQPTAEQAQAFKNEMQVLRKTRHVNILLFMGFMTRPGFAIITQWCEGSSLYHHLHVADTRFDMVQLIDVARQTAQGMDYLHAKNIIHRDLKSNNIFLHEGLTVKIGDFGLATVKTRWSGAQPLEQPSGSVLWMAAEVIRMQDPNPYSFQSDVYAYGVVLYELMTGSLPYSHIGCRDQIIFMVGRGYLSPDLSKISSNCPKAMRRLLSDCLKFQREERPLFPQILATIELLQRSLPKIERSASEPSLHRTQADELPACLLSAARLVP
How it was run: as §1

PAK4 = molecular target: T7, PAK4 (Homo sapiens, UniProt O96013)
T7 construct: purchased Reaction Biology Corp
T7 sequence (O96013 whole entry): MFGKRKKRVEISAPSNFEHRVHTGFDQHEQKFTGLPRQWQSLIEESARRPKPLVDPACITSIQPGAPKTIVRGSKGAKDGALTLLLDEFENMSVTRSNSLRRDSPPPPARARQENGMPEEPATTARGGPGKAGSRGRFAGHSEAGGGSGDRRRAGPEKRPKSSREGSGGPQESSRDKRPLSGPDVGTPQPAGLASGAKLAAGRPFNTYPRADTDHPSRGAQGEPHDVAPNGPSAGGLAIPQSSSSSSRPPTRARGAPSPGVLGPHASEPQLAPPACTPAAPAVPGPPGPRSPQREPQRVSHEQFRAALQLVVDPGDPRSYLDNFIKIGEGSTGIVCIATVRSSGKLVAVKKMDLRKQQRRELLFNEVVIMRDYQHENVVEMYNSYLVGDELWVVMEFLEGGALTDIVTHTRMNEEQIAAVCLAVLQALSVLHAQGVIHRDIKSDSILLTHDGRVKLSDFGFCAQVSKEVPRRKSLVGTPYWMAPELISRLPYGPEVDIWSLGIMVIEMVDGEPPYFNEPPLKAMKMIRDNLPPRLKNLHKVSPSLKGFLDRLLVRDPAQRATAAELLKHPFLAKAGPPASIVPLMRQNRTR
How it was run: as §1

PKCiota = molecular target: T8, PKCiota (Homo sapiens, UniProt P41743)
T8 construct: purchased Reaction Biology Corp
T8 sequence (P41743 1-596): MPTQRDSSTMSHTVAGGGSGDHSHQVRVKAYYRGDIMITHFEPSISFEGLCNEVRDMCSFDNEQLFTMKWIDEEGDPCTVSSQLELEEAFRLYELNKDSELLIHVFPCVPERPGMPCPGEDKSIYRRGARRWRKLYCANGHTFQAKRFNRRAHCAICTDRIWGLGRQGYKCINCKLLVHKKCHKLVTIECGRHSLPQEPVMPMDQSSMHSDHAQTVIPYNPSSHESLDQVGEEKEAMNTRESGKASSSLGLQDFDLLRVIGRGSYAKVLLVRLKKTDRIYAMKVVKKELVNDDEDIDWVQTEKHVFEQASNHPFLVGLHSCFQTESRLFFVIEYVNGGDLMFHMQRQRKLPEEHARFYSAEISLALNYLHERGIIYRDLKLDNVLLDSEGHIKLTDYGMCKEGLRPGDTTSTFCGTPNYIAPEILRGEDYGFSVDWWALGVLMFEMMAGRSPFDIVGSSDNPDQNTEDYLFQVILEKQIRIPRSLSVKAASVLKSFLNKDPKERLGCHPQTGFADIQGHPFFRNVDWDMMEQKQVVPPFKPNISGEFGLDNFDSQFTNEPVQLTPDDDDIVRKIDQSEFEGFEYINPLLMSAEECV
How it was run: as §1

CLK3 = molecular target: T9, CLK3 (Homo sapiens, UniProt P49761)
T9 construct: purchased Reaction Biology Corp
T9 sequence (P49761 whole entry): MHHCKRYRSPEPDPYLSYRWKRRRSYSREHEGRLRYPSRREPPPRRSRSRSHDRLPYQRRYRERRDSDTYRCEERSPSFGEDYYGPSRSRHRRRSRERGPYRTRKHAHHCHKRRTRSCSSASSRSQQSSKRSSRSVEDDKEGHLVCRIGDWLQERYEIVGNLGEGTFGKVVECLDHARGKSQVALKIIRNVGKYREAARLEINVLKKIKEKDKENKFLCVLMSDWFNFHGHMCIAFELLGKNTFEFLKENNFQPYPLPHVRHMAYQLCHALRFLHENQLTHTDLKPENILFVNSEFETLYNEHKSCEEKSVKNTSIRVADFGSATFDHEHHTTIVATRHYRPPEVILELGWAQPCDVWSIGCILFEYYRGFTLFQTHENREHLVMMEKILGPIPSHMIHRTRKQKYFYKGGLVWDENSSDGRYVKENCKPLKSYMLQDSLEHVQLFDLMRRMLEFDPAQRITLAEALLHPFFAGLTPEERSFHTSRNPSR
How it was run: as §1

FLT4/VEGFR3 = molecular target: T10, FLT4/VEGFR3 (Homo sapiens, UniProt P35916)
T10 construct: purchased Reaction Biology Corp
T10 sequence (P35916 25-1363): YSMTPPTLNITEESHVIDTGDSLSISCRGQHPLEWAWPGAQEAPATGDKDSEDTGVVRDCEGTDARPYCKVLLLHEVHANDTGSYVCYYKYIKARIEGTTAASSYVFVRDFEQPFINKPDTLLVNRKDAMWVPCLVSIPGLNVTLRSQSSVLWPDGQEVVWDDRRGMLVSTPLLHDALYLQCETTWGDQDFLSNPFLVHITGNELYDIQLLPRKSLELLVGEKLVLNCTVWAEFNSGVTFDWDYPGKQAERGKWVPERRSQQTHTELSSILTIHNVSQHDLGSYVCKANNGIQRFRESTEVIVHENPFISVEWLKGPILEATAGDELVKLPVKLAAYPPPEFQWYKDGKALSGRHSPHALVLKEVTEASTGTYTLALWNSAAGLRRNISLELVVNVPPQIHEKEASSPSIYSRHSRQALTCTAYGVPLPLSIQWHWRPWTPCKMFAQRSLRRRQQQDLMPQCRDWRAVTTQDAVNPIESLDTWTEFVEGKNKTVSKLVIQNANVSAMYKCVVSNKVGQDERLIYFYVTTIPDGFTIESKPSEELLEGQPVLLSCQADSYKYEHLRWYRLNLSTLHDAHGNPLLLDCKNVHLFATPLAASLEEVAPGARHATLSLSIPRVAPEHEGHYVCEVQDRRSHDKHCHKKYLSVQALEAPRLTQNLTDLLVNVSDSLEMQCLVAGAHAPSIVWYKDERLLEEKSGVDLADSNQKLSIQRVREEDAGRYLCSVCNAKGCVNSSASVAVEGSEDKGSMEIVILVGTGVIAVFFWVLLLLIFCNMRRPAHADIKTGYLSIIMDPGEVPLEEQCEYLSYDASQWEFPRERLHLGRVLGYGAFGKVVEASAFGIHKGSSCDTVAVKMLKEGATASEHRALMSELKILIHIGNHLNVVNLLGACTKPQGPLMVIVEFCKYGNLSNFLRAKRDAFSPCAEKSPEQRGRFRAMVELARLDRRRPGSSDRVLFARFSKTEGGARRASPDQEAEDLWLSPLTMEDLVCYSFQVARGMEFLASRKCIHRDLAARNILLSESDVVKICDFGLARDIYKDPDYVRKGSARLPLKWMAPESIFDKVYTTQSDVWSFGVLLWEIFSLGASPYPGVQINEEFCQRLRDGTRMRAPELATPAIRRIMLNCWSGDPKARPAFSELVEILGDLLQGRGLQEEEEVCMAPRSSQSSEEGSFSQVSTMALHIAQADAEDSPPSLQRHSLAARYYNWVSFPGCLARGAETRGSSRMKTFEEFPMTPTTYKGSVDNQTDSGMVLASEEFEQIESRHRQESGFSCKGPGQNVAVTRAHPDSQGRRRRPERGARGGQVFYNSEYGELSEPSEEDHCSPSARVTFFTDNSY
How it was run: as §1

[1] = read-out: % Enzyme Activity (relative to DMSO controls) Run 1
[2] = read-out: % Enzyme Activity (relative to DMSO controls) Run 2

T1 sequence (Q02750 whole entry): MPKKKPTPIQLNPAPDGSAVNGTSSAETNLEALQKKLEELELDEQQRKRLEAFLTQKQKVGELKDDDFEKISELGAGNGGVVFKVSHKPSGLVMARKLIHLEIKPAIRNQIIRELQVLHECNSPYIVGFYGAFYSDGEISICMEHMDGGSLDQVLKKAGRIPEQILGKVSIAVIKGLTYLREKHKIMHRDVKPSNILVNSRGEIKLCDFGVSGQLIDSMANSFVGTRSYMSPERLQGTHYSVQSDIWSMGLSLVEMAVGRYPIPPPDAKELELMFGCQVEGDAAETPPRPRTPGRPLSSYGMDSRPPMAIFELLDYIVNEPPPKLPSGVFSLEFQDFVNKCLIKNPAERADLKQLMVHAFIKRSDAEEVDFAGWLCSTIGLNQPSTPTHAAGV

C=CC(=O)Nc1cccc(Nc2nc(Nc3ccc(OCCOC)c(F)c3)ncc2F)c1 [Compound 2]
inhibition at 3 µM (MEK1): -10.3%
remaining activity at 3 µM (MEK1; [1]): 109%
remaining activity at 3 µM (MEK1; [2]): 112%
inhibition at 3 µM (LCK): 36%
remaining activity at 3 µM (LCK; [1]): 64.7%
remaining activity at 3 µM (LCK; [2]): 63.4%
inhibition at 3 µM (RSK4): 22.8%
remaining activity at 3 µM (RSK4; [1]): 77.2%
remaining activity at 3 µM (RSK4; [2]): 77.2%
inhibition at 3 µM (STK32B/YANK2): 5.3%
remaining activity at 3 µM (STK32B/YANK2; [1]): 95.8%
remaining activity at 3 µM (STK32B/YANK2; [2]): 93.6%
inhibition at 3 µM (TSSK2): 3.36%
remaining activity at 3 µM (TSSK2; [1]): 97%
remaining activity at 3 µM (TSSK2; [2]): 96.3%
inhibition at 3 µM (ARAF): -1.47%
remaining activity at 3 µM (ARAF; [1]): 103%
remaining activity at 3 µM (ARAF; [2]): 100%
inhibition at 3 µM (PAK4): 2.45%
remaining activity at 3 µM (PAK4; [1]): 98.7%
remaining activity at 3 µM (PAK4; [2]): 96.4%
inhibition at 3 µM (PKCiota): -5.47%
remaining activity at 3 µM (PKCiota; [1]): 105%
remaining activity at 3 µM (PKCiota; [2]): 106%
inhibition at 3 µM (CLK3): 6.9%
remaining activity at 3 µM (CLK3; [1]): 90.4%
remaining activity at 3 µM (CLK3; [2]): 95.8%
inhibition at 3 µM (FLT4/VEGFR3): 56%
remaining activity at 3 µM (FLT4/VEGFR3; [1]): 43.8%
remaining activity at 3 µM (FLT4/VEGFR3; [2]): 44.2%
